Assay results taken from patent US9006221B2, “Method of modulating ship activity” (H. Lee Moffitt Cancer Center and Reserach Institute, Inc., priority 2008, dated 2015).
Entries after “also recorded” stand apart in the source; their conditions may differ.

Legend:
[1] = test system: human multiple myeloma cell lines OPM and RPMI; experiment: Apoptosis (annexin positive cells) in multiple myeloma cell lines; assay type: cell-based; conditions: increasing concentrations
Excerpt: (A) SHIP1 expression in human multiple myeloma (MM) cell lines as presented in the western blot analysis. SHIP is expressed in the human multiple myeloma cell lines U266, RPMI8226 and OPM2. The expression in the MM cell lines is shown relative to that observed in MG63 and HS-5 cell lines. MG63 is an osteosarcoma cell line, and HS-5 is a human bone marrow stroma cell line. […] Actin is provided as a control. (B) Results of MTT dye assays of MM cell lines. […] RUO is “relative units optical”. (C) Apoptosis in OPM and RPMI cell lines at increasing concentrations of 3α-aminocholestane.

KG1 cells = experiment: Apoptosis of KG1 cells (Western blot, Annexin V/PI FACS); assay type: cell-based, human
Protocol: (A) SHIP1 expression in KG1 and MG63 cells was determined by Western blotting (top). Membranes were reprobed with antibodies against b-actin to confirm equal loading (lower panel). One representative blot of 2 individual experiments is shown. (B) KG1 and MG63 cells were plated in duplicate in 96 well plates, and treated for 36 hours with increasing concentrations of the 3α-aminocholestane. Cell viability was assessed by MTT assay. Results represent the mean of three individual experiments. (C) KG1 cells were treated with increasing concentrations of 3α-aminocholestane for 36 hours and hallmarks of apoptosis were identified in cell lysates by Western Blot analysis. Membranes were probed with antibodies against PARP and cleaved PARP (cPARP, upper panel) and cleaved Caspase 3 (cCaspase 3, middle panel). Equal protein loading was confirmed by reprobing the blots with anti-b-actin antibodies (lower panel). A representative example of 2 independent experiments is shown. (D) KG1 cells were treated with increasing concentrations of 3α-aminocholestane, and the percentage of AnnexinV and PI positive cells was determined by FACS analysis. A representative example of 2 individual experiments is shown.
It was a concern that SHIP1 inhibitors might potentially enhance the survival and growth of blood cell cancers. Conversely, as discussed above, SHIP1 inhibition could also […] Akt activation and therefore might also antagonize the survival of malignant blood cells. The two possibilities were tested by treating the AML cell line (KG-1) that expresses SHIP1 (FIG. 17a) with 3α-aminocholestane. […]
Preparation of cell lysates and Western blotting: Cells were counted, centrifuged and resuspended in Laemmli sample buffer. […]
Annexin V staining Annexin V/Propidium Iodide (PI) staining was performed using the Annexin V-FITC apoptosis detection kit from BD Pharmingen (Sharon, Mass.) per the manufacturer's instructions. […] Fluorescence was determined by flow cytometry (LSR II, Becton Dickinson Medical Systems, Sharon, Mass.).

[2] = test system: priming of allogeneic T cell responses by C57Bl6/J splenocytes; experiment: One-way mixed leukocyte reaction (MLR), stimulator splenocytes treated in vitro; assay type: cell-based, mouse; conditions: splenocytes cultured with compound 72 hr, added at 0, 24 and 48 hr
Protocol: Mean proliferation of 100K BALB/C responders as measured by ^3H-Thymidine uptake after exposure to 200K irradiated BL6 stimulators that were treated with the indicated compound, 1×DMSO or 1× EtOH prior to initiation of the mixed leukocyte reaction (MLR). 1×DMSO serves as the allogeneic MLR positive control for all compounds with the exception of HLM85321 for which 1× EtOH is the positive control. [*p<0.05, **p<0.01].
Spleen cells and lymphe node LN cells are normally robust stimulators of allogeneic T cell responses in the one-way mixed leukocyte reaction (MLR) assay, but they are very poor stimulators when obtained from mice with germline or induced SHIP-deficiency. […]
Mixed leukocyte reactions (MLR): Following RBC lysis, irradiated (2000 Rads) BL6 splenocytes (stimulators) at 8×10^5 cells/well were combined with BALB/c splenocytes (responders) at 4×10^5 cells/well in a one-way MLR assay. […] Incorporated [3H]thymidine was quantitated using a Packard TopCount NXT. Specific [3H]thymidine incorporation into genomic DNA was calculated as the average of the mean (±SEM) of sextuplicate wells. […]

Row | SMILES | apoptosis (percent annexin positive cells) [1] | frequency of AnnexinV+ cells (KG1 cells; KG1, 36 hours, FACS) | cleavage of PARP and Caspase 3 (KG1 cells; KG1, 36 hours, Western blot) | activation of Akt/PKB (KG1 cells; KG1, Western blot) | ability of splenocytes to prime allogeneic T cell responses by BALB/C responders (3H-thymidine uptake) [2]
1 | CC(C)CCC[C@@H](C)[C@H]1CC[C@H]2[C@@H]3CC[C@H]4C[C@H](N)CC[C@]4(C)[C@H]3CC[C@]12C [NSC23922, (3R,5S,8R,9S,10S,13R,14S,17R)-10,13-dimethyl-17-[(2R)-6-methylheptan-2-yl]-2,3,4,5,6,7,8,9,11,12,14,15,16,17-tetradecahydro-1H-cyclopenta[a]phenanthren-3-amine] | apoptosis occurs | increased frequency | increased cleavage | decreased activation | –
2 | OC(c1cc(-c2ccccc2)nc2c1ccc1ccccc12)C1CCCCN1 (centres unmarked) [NSC13480, (2-phenylbenzo[h]quinolin-4-yl)-piperidin-2-ylmethanol] | – | – | – | – | significantly inhibited; also recorded: complete inability to prime allogeneic T cell responses
